This is an account of results in patent publication US12024503B2, “Benzethers and anilines of pyrazolyl-amino-pyrimidinyl derivatives, and compositions and methods thereof” (LYNK PHARMACEUTICALS CO. LTD., priority 2019, dated 2024).

What is called IC50 is the point on the concentration scale where inhibition reaches its midpoint.

Type in all cases: biochemical
One experiment concerns the target T1, TYK2 (Homo sapiens, UniProt P29597).
T1 construct: purchased Carna Biosciences
Nature of the experiment: TYK2 microfluidic kinase assay (Caliper EZ Reader II, FAM labeled peptide substrate). As to conditions: (2.5 nM), 1 mM ATP; Table 2; read-out: IC50 TYK2 (2.5 nM) (1 mM ATP). The protocol:
(§1) Compounds were tested against JAK1, JAK2, JAK2V617F and TYK2.
(§2) Assay Formats: JAK activity was determined in the reaction buffer 50 mM HEPES, 0.01% Brij35, 10 mMMgCl2, 2 mMDTT by a microfluidic assay. The phosphorylation of a FAM labeled peptide substrate was monitored in the Caliper EZ Reader II (Perkin Elmer). The assay condition for each batch of enzyme (Carna Biosciences) was optimized to obtain 10% conversion rate of peptide substrate.
(§3) The test compounds were dissolved in DMSO to a stock concentration of 10 mM. 3-fold serially diluted compounds with top concentration of 5 μM were pre-incubated with JAK1, JAK2, JAK2V617F or TYK2 for 10 min at ambient temperature. The final DMSO concentration of assay mixture was 1%. FAM labeled peptide substrate (final concentration […]) and ATP (1 mM concentration) were sequentially added to initiate the kinase reaction at 28° C. The reaction was stopped by adding 50 mMEDTA. The reaction time for JAK1, JAK2, JAK2V617F and TYK2 was 120 min, 20 min, 30 min and 10 min, respectively.
(§4) The well in the test plate without enzyme was defined as 100% inhibition. And the well without compound but with equivalent DMSO was defined as no inhibition. The percent inhibition was calculated by the following formula. % Inhibition=(Conversionmax−Conversionsample)/(Conversionmax−Conversionmin)*100Conversionmax means the conversion rate in the positive well without addition of compound Conversionmin means the conversion rate in the well without addition of enzyme Conversionsample means the conversion rate of test compounds
(§5) The dose-response (percent inhibition) curve was plotted and IC50 values were determined by GraphPad software.

A further experiment has as its target T2, JAK1 (Homo sapiens, UniProt P23458).
T2 construct: purchased Carna Biosciences
Put plainly: JAK1 microfluidic kinase assay (Caliper EZ Reader II, FAM labeled peptide substrate). Conditions: (5 nM), 1 mM ATP; Table 2; read-out: IC50 JAK1 (5 nM) (1 mM ATP). The protocol:
as §1, §2, §3, §4, §5

A further experiment deals with T3, JAK2 (Homo sapiens, UniProt O60674).
T3 construct: purchased Carna Biosciences
T3 sequence (O60674 whole entry): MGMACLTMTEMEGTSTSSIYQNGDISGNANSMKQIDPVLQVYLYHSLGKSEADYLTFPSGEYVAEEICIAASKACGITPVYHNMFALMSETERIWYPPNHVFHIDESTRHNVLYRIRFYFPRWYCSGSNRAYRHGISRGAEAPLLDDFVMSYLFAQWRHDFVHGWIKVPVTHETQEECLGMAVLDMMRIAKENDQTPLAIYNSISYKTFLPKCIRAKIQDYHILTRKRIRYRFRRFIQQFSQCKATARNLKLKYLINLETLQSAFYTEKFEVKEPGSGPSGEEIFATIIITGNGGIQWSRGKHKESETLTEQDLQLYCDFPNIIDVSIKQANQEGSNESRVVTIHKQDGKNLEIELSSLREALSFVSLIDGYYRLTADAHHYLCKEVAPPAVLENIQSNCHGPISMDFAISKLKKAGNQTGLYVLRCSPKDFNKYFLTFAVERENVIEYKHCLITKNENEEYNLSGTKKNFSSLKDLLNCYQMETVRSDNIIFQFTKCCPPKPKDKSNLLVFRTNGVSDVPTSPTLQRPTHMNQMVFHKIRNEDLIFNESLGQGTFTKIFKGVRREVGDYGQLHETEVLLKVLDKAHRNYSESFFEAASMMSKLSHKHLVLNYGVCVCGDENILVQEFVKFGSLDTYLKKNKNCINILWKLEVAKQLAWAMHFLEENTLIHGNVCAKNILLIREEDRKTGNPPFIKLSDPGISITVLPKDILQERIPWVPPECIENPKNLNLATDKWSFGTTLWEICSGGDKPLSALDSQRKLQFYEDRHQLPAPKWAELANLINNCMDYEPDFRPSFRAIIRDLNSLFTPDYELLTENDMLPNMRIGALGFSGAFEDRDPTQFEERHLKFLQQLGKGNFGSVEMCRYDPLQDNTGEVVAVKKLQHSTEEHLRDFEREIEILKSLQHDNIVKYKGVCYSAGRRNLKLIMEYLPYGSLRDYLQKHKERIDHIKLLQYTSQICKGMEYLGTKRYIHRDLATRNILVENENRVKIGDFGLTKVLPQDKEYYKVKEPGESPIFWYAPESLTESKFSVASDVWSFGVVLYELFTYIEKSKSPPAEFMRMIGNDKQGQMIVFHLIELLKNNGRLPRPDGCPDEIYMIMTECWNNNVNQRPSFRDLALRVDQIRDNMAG
Put plainly: JAK2 microfluidic kinase assay (Caliper EZ Reader II, FAM labeled peptide substrate). Conditions: (0.25 nM), 1 mM ATP; Table 2; read-out: IC50 JAK2 (0.25 nM) (1 mM ATP). The method, then:
as §1, §2, §3, §4, §5

A further experiment concerns the target T4, JAK2V617F (Homo sapiens, UniProt O60674, V617F).
T4 construct: purchased Carna Biosciences
Put plainly: JAK2V617F microfluidic kinase assay (Caliper EZ Reader II, FAM labeled peptide substrate). Conditions: (2.5 nM), 1 mM ATP; Table 2; read-out: IC50 J2V617F (2.5 nM) (1 mM ATP). The protocol: as §1, §2, §3, §4, §5

Some results are limits rather than exact numbers.

T2 sequence (P23458 whole entry): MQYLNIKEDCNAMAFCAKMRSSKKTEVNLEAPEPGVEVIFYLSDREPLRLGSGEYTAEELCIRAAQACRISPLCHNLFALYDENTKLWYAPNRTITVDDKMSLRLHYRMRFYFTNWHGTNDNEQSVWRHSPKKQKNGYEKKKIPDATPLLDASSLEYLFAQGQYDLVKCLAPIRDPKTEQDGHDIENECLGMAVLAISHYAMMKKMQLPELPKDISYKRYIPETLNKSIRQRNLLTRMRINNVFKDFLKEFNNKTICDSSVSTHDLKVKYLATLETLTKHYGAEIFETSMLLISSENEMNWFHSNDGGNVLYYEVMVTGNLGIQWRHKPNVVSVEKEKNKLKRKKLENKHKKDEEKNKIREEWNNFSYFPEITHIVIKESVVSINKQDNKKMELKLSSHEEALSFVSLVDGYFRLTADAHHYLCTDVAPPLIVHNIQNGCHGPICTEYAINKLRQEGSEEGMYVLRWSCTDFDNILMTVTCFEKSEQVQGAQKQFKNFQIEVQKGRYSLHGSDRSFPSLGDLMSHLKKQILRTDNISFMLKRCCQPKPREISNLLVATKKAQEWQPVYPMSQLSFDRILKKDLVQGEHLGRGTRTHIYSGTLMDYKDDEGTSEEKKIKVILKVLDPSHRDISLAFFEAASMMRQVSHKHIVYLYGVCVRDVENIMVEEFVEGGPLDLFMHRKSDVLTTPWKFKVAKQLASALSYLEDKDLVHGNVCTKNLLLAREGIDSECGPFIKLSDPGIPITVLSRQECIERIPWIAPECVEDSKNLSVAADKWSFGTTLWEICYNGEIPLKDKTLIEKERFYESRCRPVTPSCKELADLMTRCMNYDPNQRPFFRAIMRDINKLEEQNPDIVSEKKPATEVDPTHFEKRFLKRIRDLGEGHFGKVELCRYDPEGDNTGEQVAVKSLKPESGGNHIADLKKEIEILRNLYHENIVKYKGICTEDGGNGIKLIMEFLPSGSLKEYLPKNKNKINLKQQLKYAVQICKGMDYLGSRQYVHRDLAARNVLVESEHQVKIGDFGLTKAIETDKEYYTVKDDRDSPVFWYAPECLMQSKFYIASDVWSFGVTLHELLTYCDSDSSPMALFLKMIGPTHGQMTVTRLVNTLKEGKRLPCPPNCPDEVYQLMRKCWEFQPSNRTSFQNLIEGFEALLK
T1 sequence (P29597 whole entry): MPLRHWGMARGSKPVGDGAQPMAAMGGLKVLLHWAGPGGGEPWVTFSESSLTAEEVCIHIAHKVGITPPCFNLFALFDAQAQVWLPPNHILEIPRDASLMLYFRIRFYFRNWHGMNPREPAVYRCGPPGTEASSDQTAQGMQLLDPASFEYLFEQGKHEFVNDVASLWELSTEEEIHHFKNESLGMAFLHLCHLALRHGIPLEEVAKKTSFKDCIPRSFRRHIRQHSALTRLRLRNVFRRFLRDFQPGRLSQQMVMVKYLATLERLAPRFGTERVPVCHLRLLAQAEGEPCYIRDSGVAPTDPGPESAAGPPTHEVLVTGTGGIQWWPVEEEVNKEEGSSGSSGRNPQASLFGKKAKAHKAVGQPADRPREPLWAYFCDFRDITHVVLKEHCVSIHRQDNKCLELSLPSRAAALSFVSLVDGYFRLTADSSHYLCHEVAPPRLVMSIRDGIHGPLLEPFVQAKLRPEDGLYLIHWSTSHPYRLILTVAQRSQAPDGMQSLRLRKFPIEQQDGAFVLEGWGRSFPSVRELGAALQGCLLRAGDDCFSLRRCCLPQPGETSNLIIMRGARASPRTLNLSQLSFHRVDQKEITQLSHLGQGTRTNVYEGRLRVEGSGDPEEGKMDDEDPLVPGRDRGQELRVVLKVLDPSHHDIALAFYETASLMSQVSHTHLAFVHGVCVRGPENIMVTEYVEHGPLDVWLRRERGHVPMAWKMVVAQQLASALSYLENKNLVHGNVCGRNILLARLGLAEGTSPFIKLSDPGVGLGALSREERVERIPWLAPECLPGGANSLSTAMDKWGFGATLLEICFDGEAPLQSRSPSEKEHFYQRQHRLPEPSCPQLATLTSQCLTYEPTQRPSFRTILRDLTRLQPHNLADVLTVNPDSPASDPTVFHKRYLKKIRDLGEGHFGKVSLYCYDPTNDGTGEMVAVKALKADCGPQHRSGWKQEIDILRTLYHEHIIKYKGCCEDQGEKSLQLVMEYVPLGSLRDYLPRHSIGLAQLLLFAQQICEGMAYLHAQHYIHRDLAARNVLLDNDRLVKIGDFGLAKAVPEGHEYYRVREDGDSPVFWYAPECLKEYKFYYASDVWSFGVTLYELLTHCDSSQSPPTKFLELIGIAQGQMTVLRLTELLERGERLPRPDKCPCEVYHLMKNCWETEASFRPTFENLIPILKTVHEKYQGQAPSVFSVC
T4 sequence (O60674 whole entry V617F): as the sequence (O60674 whole entry) above, with V617F counted along it

As for `Cc1cnc(Nc2cnn(C3CCNCC3)c2)nc1-c1ccc(OCC(C)(C)C#N)c(F)c1` [Example 39, 3-(2-fluoro-4-(5-methyl-2-((1-(piperidin-4-yl)-1H-pyrazol-4-yl)amino)pyrimidin-4-yl)phenoxy)-2,2-dimethylpropanenitrile], the half-maximal inhibitory concentration (IC50) at TYK2 was less than 1.25 nM; at JAK1, less than 2.5 nM; on JAK2, 0.377 nM.
Consider `CC(C)(C#N)COc1ccc(-c2nc(Nc3cnn(C4CC4)c3)ncc2Cl)cc1` [Example 32, 3-(4-(5-chloro-2-((1-cyclopropyl-1H-pyrazol-4-yl)amino)pyrimidin-4-yl)phenoxy)-2,2-dimethylpropanenitrile], for which the results for the IC50 on TYK2, on JAK1 and on JAK2 were 106 nM, 28.9 nM and 0.9 nM, respectively.
For `Cc1cnc(Nc2cnn(C(C)C(F)(F)F)c2)nc1-c1ccc(OCC(C)(C)C#N)c(F)c1` (stereo not drawn) [Example 40, 3-(2-fluoro-4-(5-methyl-2-((1-(1,1,1-trifluoropropan-2-yl)-1H-pyrazol-4-yl)amino)pyrimidin-4-yl)phenoxy)-2,2-dimethylpropanenitrile] the same measures were 1.78 nM, less than 2.5 nM and 0.654 nM.
Consider `Cc1cnc(Nc2cnn(C3CC3)c2)nc1-c1ccc(NCC2(C#N)CC2)cc1` [Example 42, 1-(((4-(2-((1-cyclopropyl-1H-pyrazol-4-yl)amino)-5-methylpyrimidin-4-yl)phenyl)amino)methyl)cyclopropane carbonitrile], for which the values for the IC50 at TYK2, on JAK1 and at JAK2 were 102 nM, 19.2 nM and 27.4 nM, respectively.
As to `Cc1cnc(Nc2cnn(C3CC3)c2)nc1-c1ccc(NCC(C)(C)C#N)c(F)c1` [Example 37, 3-((4-(2-((1-cyclopropyl-1H-pyrazol-4-yl)amino)-5-methylpyrimidin-4-yl)-2-fluorophenyl)amino)-2,2-dimethylpropanenitrile], the IC50 at TYK2 is less than 1.25 nM; on JAK1 it was 14.5 nM; at JAK2, 0.741 nM.
Consider `Cc1cnc(Nc2cnn(C3CC3)c2)nc1-c1ccc(OCC2(C#N)CC2)c(F)c1` [Example 5, 1-((4-(2-((1-cyclopropyl-1H-pyrazol-4-yl)amino)-5-methylpyrimidin-4-yl)-2-fluorophenoxy)methyl)cyclopropane-carbonitrile], for which the IC50 on TYK2 was 3.26 nM; on JAK1, 3.32 nM; at JAK2V617F, less than 1.25 nM.
Take `Cc1cnc(Nc2cnn(C)c2)nc1-c1ccc(OCC(C)(C)C#N)cc1` [Example 38, 2,2-dimethyl-3-(4-(5-methyl-2-((1-methyl-1H-pyrazol-4-yl)amino)pyrimidin-4-yl)phenoxy)propanenitrile]: the IC50 came to 2.62 nM on TYK2, 7.49 nM on JAK1 and 1.09 nM on JAK2.
As for `Cc1cnc(Nc2cnn(C3CCOCC3)c2)nc1-c1ccc(OCC2(C#N)CC2)c(F)c1` [Example 6, 1-((2-fluoro-4-(5-methyl-2-((1-(tetrahydro-2H-pyran-4-yl)-1H-pyrazol-4-yl)amino)pyrimidin-4-yl)phenoxy)methyl)cyclopropane-carbonitrile], the figures for the IC50 on TYK2, on JAK1 and on JAK2V617F were less than 1.25 nM, 7.42 nM and less than 1.25 nM, respectively.
Take `Cc1cnc(Nc2cnn(C)c2)nc1-c1ccc(OCCC#N)c(F)c1` [Example 12, 3-(2-fluoro-4-(5-methyl-2-((1-methyl-1H-pyrazol-4-yl)amino)pyrimidin-4-yl)phenoxy)propanenitrile]: the IC50 at TYK2 amounted to 64.7 nM; on JAK1 it was 19.6 nM; on JAK2 it was 32.3 nM.
Turning to `Cc1cnc(Nc2cnn(C3CC3)c2)nc1-c1ccc(OCC2(C#N)CC2)nc1` [Example 11, 1-(((5-(2-((l-cyclopropyl-1H-pyrazol-4-yl)amino)-5-methylpyrimidin-4-yl)pyridin-2-yl)oxy)methyl)cyclopropanecarbonitrile], the IC50 at TYK2 is 218 nM; at JAK1, 65.1 nM; at JAK2V617F it was 138 nM.
Turning to `Cc1cnc(Nc2cnn(C3CCN(C)CC3)c2)nc1-c1ccc(OCC2(C#N)CC2)c(F)c1` [Example 20, 1-((2-fluoro-4-(5-methyl-2-((1-(1-methylpiperidin-4-yl)-1H-pyrazol-4-yl)amino)pyrimidin-4-yl)phenoxy)methyl)cyclopropane-carbonitrile], the values for the half-maximal inhibitory concentration (IC50) at TYK2, on JAK1 and at JAK2 were less than 1.25 nM, less than 2.5 nM and 0.251 nM, respectively.
For `Cc1cnc(Nc2cnn(C3CCOCC3)c2)nc1-c1ccc(OCC(C)(C)C#N)c(F)c1` [Example 7, 3-(2-fluoro-4-(5-methyl-2-((1-(tetrahydro-2H-pyran-4-yl)-1H-pyrazol-4-yl)amino)pyrimidin-4-yl)phenoxy)-2,2-dimethylpropanenitrile], the IC50 was less than 1.25 nM at TYK2, less than 2.5 nM on JAK1 and less than 1.25 nM on JAK2V617F.
On to `Cc1cnc(Nc2cnn(C3CCOCC3)c2)nc1-c1ccc(OCC2(C#N)CC2)nc1` [Example 14, 1-(((5-(5-methyl-2-((1-(tetrahydro-2H-pyran-4-yl)-1H-pyrazol-4-yl)amino)pyrimidin-4-yl)pyridin-2-yl)oxy)methyl)cyclopropanecarbonitrile], for which the IC50 at TYK2 stood at 351 nM; on JAK1, 202 nM; on JAK2V617F, 163 nM.
Turning to `Cc1cnc(Nc2cnn(C3CCN(C)CC3)c2)nc1-c1ccc(OCC(C)(C)C#N)c(F)c1` [Example 18, 3-(2-fluoro-4-(5-methyl-2-((1-(1-methylpiperidin-4-yl)-1H-pyrazol-4-yl)amino)pyrimidin-4-yl)phenoxy)-2,2-dimethylpropanenitrile], the results for the half-maximal inhibitory concentration (IC50) on TYK2, on JAK1 and on JAK2 were less than 1.25 nM, less than 2.5 nM and 0.427 nM, respectively.
Regarding `N#CC1(CNc2ccc(-c3nc(Nc4cnn(C5CCNCC5)c4)ncc3Cl)cc2)CC1` [Example 44, 1-(((4-(5-chloro-2-((1-(piperidin-4-yl)-1H-pyrazol-4-yl)amino)pyrimidin-4-yl)phenyl)amino)methyl)cyclopropane carbonitrile], the IC50 at TYK2 is 173 nM; at JAK1 it was 35.3 nM; on JAK2, 1.46 nM.
For `Cc1cnc(Nc2cnn(C)c2)nc1-c1ccc(OCCC#N)cc1` [Example 41, 3-(4-(5-methyl-2-((1-methyl-1H-pyrazol-4-yl)amino)pyrimidin-4-yl)phenoxy)propanenitrile] the same measures were 64.7 nM, 19.6 nM and 32.3 nM.
For the compound `Cn1cc(Nc2ncc(Cl)c(-c3ccc(OCC(C)(C)C#N)cc3)n2)cn1` [Example 29, 3-(4-(5-chloro-2-((1-methyl-1H-pyrazol-4-yl)amino)pyrimidin-4-yl)phenoxy)-2,2-dimethylpropanenitrile], the IC50 on TYK2 was 41.4 nM; at JAK1, 14.1 nM; on JAK2, 3.4 nM.
Consider `Cc1cnc(Nc2cnn(C3CCN(C)CC3)c2)nc1-c1ccc(NCC2(C#N)CC2)cc1` [Example 43, 1-(((4-(5-methyl-2-((1-(1-methylpiperidin-4-yl)-1H-pyrazol-4-yl)amino)pyrimidin-4-yl)phenyl)amino)methyl)cyclopropane carbonitrile], for which the IC50 came out at 98.4 nM on TYK2, 26.8 nM at JAK1 and 3.12 nM at JAK2.
Consider `Cc1cnc(Nc2cnn(C3CC3)c2)nc1-c1ccc(OCC2(C#N)CCC2)cc1` [Example 3, 1-((4-(2-((1-cyclopropyl-1H-pyrazol-4-yl)amino)-5-methylpyrimidin-4-yl)phenoxy)methyl)cyclobutane-carbonitrile], for which the IC50 at TYK2 is 21.9 nM; at JAK1 it was 8.86 nM; at JAK2V617F, 28.1 nM.
